In patent US9499464B2, “Opsin-binding ligands, compositions and methods of use” (priority 2011, dated 2016):

tested on: not given; assay: not given; settings: not given

Compound | melting point [°C]
CC1(C)CCC(C)(C)[C@H]2CC(=O)C=C21 [Compound 69a, (+)-4,4,7,7-tetramethyl-5,6,7,7a-tetrahydro-1H-inden-2(4H)-one] | 35 to 38

tested on: P23H opsin; assay: Rhodopsin purification and regeneration (P23H cells treated with compound, regenerated with 9-cis-retinal, 480-500 nm absorbance); settings: P23H cells, compound concentration 10 μM, 48 hours, regeneration with 9-cis-retinal (20 μM)

Compound | Fold Increase Over Control (480-500 nm absorbance as fold increase over the DMSO control) [fold]
CON=C1C=C(C(C)C)[C@]2(C)CCCC(C)(C)[C@H]12 (racemic) [Compound 51, (±)-(3aR,7aS)-3-isopropyl-3a,7,7-trimethyl-3a,4,5,6,7,7a-hexahydro-1H-inden-1-one O-methyl oxime] | 1.7
CC1(C)CCCC2=C1CCC2=O [Compound 56, 4,4-dimethyl-2,3,4,5,6,7-hexahydro-1H-inden-1-one] | 1.7
CC1(C)CCC[C@@]2(C)C(C3CC3)=CC(=O)[C@@H]12 (racemic) [Compound 44, (±)-(3aR,7aS)-3-cyclopropyl-3a,7,7-trimethyl-3a,4,5,6,7,7a-hexahydro-1H-inden-1-one] | 2.2
CC1(C)CCCC2CC(=O)C=C21 (centres unmarked) [Compound 53, 4,4-dimethyl-5,6,7,7a-tetrahydro-1H-inden-2(4H)-one] | 1.7
CC(C)[C@@H]1CC(=O)[C@H]2C(C)(C)CCC[C@@]12C (racemic) [Compound 46, (±)-(3S,3aS,7aS)-3-isopropyl-3a,7,7-trimethyloctahydro-1H-inden-1-one] | 1.8
CC1(C)CCC[C@@]2(C)C=C[C@H](O)[C@@H]12 (racemic) [Compound 36, (±)-(1S,3aS,7aS)-3a,7,7-trimethyl-3a,4,5,6,7,7a-hexahydro-1H-inden-1-ol] | 2.0
CC(C)C1=CC(=NO)[C@H]2C(C)(C)CCC[C@@]12C (racemic) [Compound 45, (±)-(3aR,7aS)-3-isopropyl-3a,7,7-trimethyl-3a,4,5,6,7,7a-hexahydro-1H-inden-1-one oxime] | 3.0
CC1(C)CCC[C@@]2(C)C(=NO)CC[C@@H]12 (racemic) [Compound 33, (±)-(3aS,7aR)-4,4,7a-trimethyloctahydro-1H-inden-1-one oxime] | 1.8

same assay, conditions: P23H cells, compound concentration 20 μM, 48 hours, regeneration with 9-cis-retinal (20 μM)

Compound | Fold Increase Over Control (480-500 nm absorbance as fold increase over the DMSO control) [fold]
CC1(C)CCC(C)(C)[C@H]2CC(=O)C=C21 [Compound 69a, (+)-4,4,7,7-tetramethyl-5,6,7,7a-tetrahydro-1H-inden-2(4H)-one] | 2.0
CC(C)[C@H]1C(=O)C=C2[C@H]1CCCC2(C)C (racemic) [Compound 61, (±)-(1R,7aS)-1-isopropyl-4,4-dimethyl-5,6,7,7a-tetrahydro-1H-inden-2(4H)-one] | 1.8
CC1=C(C)[C@H]2[C@H](CCCC2(C)C)[C@@H]1O (racemic) [Compound 72, (±)-(1S,3aS,7aS)-2,3,4,4-tetramethyl-3a,4,5,6,7,7a-hexahydro-1H-inden-1-ol] | 1.9
CC1(C)CCC[C@@]2(C)[C@@H](O)CC[C@@H]12 (racemic) [Compound 18, (±)-(1S,3aS,7aR)-4,4,7a-trimethyloctahydro-1H-inden-1-ol] | 1.7
CC1(C)CCC[C@@]2(C)CC(O)C[C@@H]12 (mixture of isomers) [Compound 63, (±)-(3aS,7aS)-3a,7,7-trimethyloctahydro-1H-inden-2-ol] | 2.3
CC1(C)CCC[C@@]2(C)CC[C@H](O)[C@@H]12 (racemic) [Compound 60, (±)-(1S,3aS,7aS)-3a,7,7-trimethyloctahydro-1H-inden-1-ol] | 2.1
CC1=C(C)[C@H]2[C@H](CCCC2(C)C)C1=O (racemic) [Compound 64, (±)-(3aS,7aS)-2,3,4,4-tetramethyl-3a,4,5,6,7,7a-hexahydro-1H-inden-1-one] | 2.1
C[C@@H]1CC(=O)C2=CCCC(C)(C)[C@H]21 (racemic) [Compound 71, (±)-(3R,3aR)-3,4,4-trimethyl-2,3,3a,4,5,6-hexahydro-1H-inden-1-one] | 2.2
